Measurements from patent US20250098679A1, “HERBICIDAL PYRIDONE DERIVATIVES” (SYNGENTA CROP PROTECTION AG, priority 2021, published 2025).

Experiments:
Type in all cases: in vivo
Settings in all cases: evaluated after 13 days
Setaria faberi (SETFA) = experiment: Post-emergence Test, Setaria faberi (SETFA); parameters: key to percentage damage caused to the plant, SETFA (five-point scale): 5=81-100%, 4=61-80%, 3=41-60%, 2=21-40%, 1=0-20% damage
Method: (§1) Seeds of a variety of test species are sown in standard soil in pots (Setaria faberi (SETFA), Echinochloa crus-galli (ECHCG), Zea mays (ZEAMX), Ipomoea hederacea (IPOHE), Amaranthus palmeri (AMAPA), Amaranthus retoflexus (AMARE)). After 8 days cultivation under controlled conditions in a glasshouse (at 24° C./16° C., day/night; 14 hours light; 65% humidity), the plants are sprayed with an aqueous spray solution derived from the formulation of the technical active ingredient in acetone/water (50:50) solution containing 0.5% Tween 20 (polyoxyethelyene sorbitan monolaurate, CAS RN 9005-64-5). Compounds are applied at 1000 g/ha unless otherwise stated. The test plants are then grown in a glasshouse under controlled conditions in a glasshouse (at 24° C./16° C., day/night; 14 hours light; 65% humidity) and watered twice daily. After 13 days the test is evaluated for the percentage damage caused to the plant. The biological activities are shown in the following table on a five-point scale (5=81-100%; 4=61-80%; 3=41-60%; 2=21-40%; 1=0-20%; -=not tested).

[1] = system: Echinochloa crus-galli (ECHCG); experiment: Post-emergence Test, Echinochloa crus-galli (ECHCG); parameters: key to percentage damage caused to the plant, ECHCG (five-point scale): 5=81-100%, 4=61-80%, 3=41-60%, 2=21-40%, 1=0-20% damage
Method: as §1

Zea mays (ZEAMX) = experiment: Post-emergence Test, Zea mays (ZEAMX); parameters: key to percentage damage caused to the plant, ZEAMX (five-point scale): 5=81-100%, 4=61-80%, 3=41-60%, 2=21-40%, 1=0-20% damage
Method: as §1

[2] = system: Ipomoea hederacea (IPOHE); experiment: Post-emergence Test, Ipomoea hederacea (IPOHE); parameters: key to percentage damage caused to the plant, IPOHE (five-point scale): 5=81-100%, 4=61-80%, 3=41-60%, 2=21-40%, 1=0-20% damage
Method: as §1

[3] = system: Amaranthus palmeri (AMAPA); experiment: Post-emergence Test, Amaranthus palmeri (AMAPA); parameters: key: 5=81-100%, 4=61-80%, 3=41-60%, 2=21-40%, 1=0-20% damage
Method: as §1

[4] = system: Amaranthus retoflexus (AMARE); experiment: Post-emergence Test, Amaranthus retoflexus (AMARE); parameters: key to percentage damage caused to the plant, AMARE (five-point scale): 5=81-100%, 4=61-80%, 3=41-60%, 2=21-40%, 1=0-20% damage
Method: as §1

Structure (SMILES)	percentage damage caused to the plant, SETFA (five-point scale) (Setaria faberi (SETFA); 1000 g/ha)	percentage damage caused to the plant, ECHCG (five-point scale) ([1]; 1000 g/ha)	percentage damage caused to the plant, ZEAMX (five-point scale) (Zea mays (ZEAMX); 1000 g/ha)	percentage damage caused to the plant, IPOHE (five-point scale) ([2]; 1000 g/ha)	percentage damage caused to the plant, AMAPA (five-point scale) ([3]; 1000 g/ha)	percentage damage caused to the plant, AMARE (five-point scale) ([4]; 1000 g/ha)	percentage damage caused to the plant, SETFA (five-point scale) (Setaria faberi (SETFA); 250 g/Ha)	percentage damage caused to the plant, ECHCG (five-point scale) ([1]; 250 g/Ha)	percentage damage caused to the plant, ZEAMX (five-point scale) (Zea mays (ZEAMX); 250 g/Ha)	percentage damage caused to the plant, IPOHE (five-point scale) ([2]; 250 g/Ha)	percentage damage caused to the plant, AMAPA (five-point scale) ([3]; 250 g/Ha)	percentage damage caused to the plant, AMARE (five-point scale) ([4]; 250 g/Ha)	Post-emergence Test SETFA, percentage damage caused to the plant (five-point scale) (Setaria faberi (SETFA); 1000 g/ha)	Post-emergence Test ZEAMX, percentage damage caused to the plant (five-point scale) (Zea mays (ZEAMX); 1000 g/ha)	Post-emergence Test IPOHE, percentage damage caused to the plant (five-point scale) ([2]; 1000 g/ha)	Post-emergence Test AMAPA, percentage damage caused to the plant (five-point scale) ([3]; 1000 g/ha)	Post-emergence Test AMARE, percentage damage caused to the plant (five-point scale) ([4]; 1000 g/ha)
CCn1c(Cn2cnc(C(F)(F)F)c2)cc(=O)c(C(=O)O)c1-c1ccc(Cl)c(Cl)c1 [Compound 10, 2-(3,4-dichlorophenyl)-1-ethyl-4-oxo-6-[[4-(trifluoromethyl)imidazol-1-yl]methyl]pyridine-3-carboxylic acid]	0	0	1 (1=0-20%)	1 (1=0-20%)	0	0	–	–	–	–	–	–	–	–	–	–	–
CCOC(=O)c1c(-c2ccc(Cl)c(Cl)c2)n(CC)c(Cn2ccc(C(F)(F)F)n2)c(Br)c1=O [Compound 23, ethyl 5-bromo-2-(3,4-dichlorophenyl)-1-ethyl-4-oxo-6-[[3-(trifluoromethyl)pyrazol-1-yl]methyl]pyridine-3-carboxylate]	2 (2=21-40%)	2 (2=21-40%)	1 (1=0-20%)	2 (2=21-40%)	2 (2=21-40%)	1 (1=0-20%)	–	–	–	–	–	–	–	–	–	–	–
CCOC(=O)c1c(-c2ccc(Cl)c(Cl)c2)n(CC)c(Cn2ccnc2)c(Br)c1=O [Compound 24, ethyl 5-bromo-2-(3,4-dichlorophenyl)-1-ethyl-6-(imidazol-1-ylmethyl)-4-oxo-pyridine-3-carboxylate]	1 (1=0-20%)	1 (1=0-20%)	3 (3=41-60%)	1 (1=0-20%)	1 (1=0-20%)	1 (1=0-20%)	1 (1=0-20%)	1 (1=0-20%)	1 (1=0-20%)	2 (2=21-40%)	1 (1=0-20%)	1 (1=0-20%)	–	–	–	–	–
CCOC(=O)c1c(-c2ccc(Cl)c(Cl)c2)n(CC)c(Cn2cnc([N+](=O)[O-])n2)cc1=O [Compound 43, ethyl 2-(3,4-dichlorophenyl)-1-ethyl-6-[(3-nitro-1,2,4-triazol-1-yl)methyl]-4-oxo-pyridine-3-carboxylate]	1 (1=0-20%)	1 (1=0-20%)	1 (1=0-20%)	0	1 (1=0-20%)	0	0	1 (1=0-20%)	0	0	1 (1=0-20%)	1 (1=0-20%)	–	–	–	–	–
CCOC(=O)c1c(-c2ccc(Cl)c(Cl)c2)n(CC)c(Cn2cnc([N+](=O)[O-])c2)cc1=O [Compound 51, ethyl 2-(3,4-dichlorophenyl)-1-ethyl-6-[(4-nitroimidazol-1-yl)methyl]-4-oxo-pyridine-3-carboxylate]	1 (1=0-20%)	1 (1=0-20%)	0	1 (1=0-20%)	1 (1=0-20%)	0	–	–	–	–	–	–	–	–	–	–	–
CCOC(=O)c1c(-c2ccc(Cl)c(Cl)c2)n(CC)c(Cn2cnc(C#N)n2)cc1=O [Compound 54, ethyl 6-[(3-cyano-1,2,4-triazol-1-yl)methyl]-2-(3,4-dichlorophenyl)-1-ethyl-4-oxo-pyridine-3-carboxylate]	1 (1=0-20%)	1 (1=0-20%)	1 (1=0-20%)	0	1 (1=0-20%)	1 (1=0-20%)	–	–	–	–	–	–	–	–	–	–	–
CCn1c(Cn2nc3ccccc3n2)cc(=O)c(C(=O)O)c1-c1ccc(Cl)c(Cl)c1 [Compound 55, 6-(benzotriazol-2-ylmethyl)-2-(3,4-dichlorophenyl)-1-ethyl-4-oxo-pyridine-3-carboxylic acid]	1 (1=0-20%)	2 (2=21-40%)	1 (1=0-20%)	3 (3=41-60%)	3 (3=41-60%)	0	0	2 (2=21-40%)	0	0	1 (1=0-20%)	1 (1=0-20%)	–	–	–	–	–
CCn1c(Cn2ccc(Cl)n2)cc(=O)c(C(=O)O)c1-c1ccc(Cl)c(C#N)c1 [Compound 131, 2-(4-chloro-3-cyano-phenyl)-6-[(3-chloropyrazol-1-yl)methyl]-1-ethyl-4-oxo-pyridine-3-carboxamide acid]	2 (2=21-40%)	–	0	1 (1=0-20%)	0	0	–	–	–	–	–	–	–	–	–	–	–
CCn1c(Cn2nc(C#N)cc2C#N)cc(=O)c(C(=O)O)c1-c1ccc(Cl)c(Cl)c1 [Compound 132, 2-(3,4-dichlorophenyl)-6-[(3,5-dicyanopyrazol-1-yl)methyl]-1-ethyl-4-oxo-pyridine-3-carboxylic acid]	1 (1=0-20%)	1 (1=0-20%)	1 (1=0-20%)	0	–	0	–	–	–	–	–	–	–	–	–	–	–
CCn1c(Cn2ccc(-c3cccc(Cl)c3)n2)cc(=O)c(C(=O)O)c1-c1ccc(Cl)c(Cl)c1 [Compound 202, 6-[[3-(3-chlorophenyl)pyrazol-1-yl]methyl]-2-(3,4-dichlorophenyl)-1-ethyl-4-oxo-pyridine-3-carboxylic acid]	–	–	–	–	–	–	–	–	–	–	–	–	1 (1=0-20%)	1 (1=0-20%)	1 (1=0-20%)	0	0
